# Data reported in patent US5432159A, “N-(α-substituted-pyridinyl)carbonyl dipeptide antihypertensive agents” (Lacer S.A., priority 1991, dated 1995).
# Key:
# [1] = test system: Angiotensin I-Induced Contractions in Guinea-Pig Ileum; assay: Inhibition of Angiotensin I-induced contractions in guinea-pig ileum; settings: final bath concentration 10 ng/ml; Angiotensin I 100 ng/ml; compound added 2 min before agonist; average of ilea from 5 guinea-pigs
# Experimental: Segments of 1.5 cm of freshly excised and washed terminal ileum were suspended in 25-ml tissue baths containing Tyrode's solution at 31° C. and bubbled with 95% O2 -5% CO2. With an initial load of 1.0 g, the resting tension after equilibration and the responses to Angiotensin I or Angiotensin II (both at 100 ng/ml) were monitored and recorded by means of an Ealing isometric transducer and a Lectromed polygraph. Several compounds of this invention were tested in this system, adding them to the bath 2 min. before the respective agonist.
# At final bath concentrations of 10 ng/ml, the inhibitory effect of the tested compounds regarding the Angiotensin I-induced contractions was determined. The obtained results are given in Table I. All % inhibitions given therein are the average of results obtained with segments of ilea from 5 guinea-pigs. At final bath concentrations of 1 μg/ml none of the tested compounds produced an appreciable modification of the contractions induced by Angiotensin II.
# [2] = test system: spontaneously hypertensive rats; assay: Antihypertensive activity in spontaneously hypertensive rats (SHR), tail cuff systolic blood pressure; type: in vivo; settings: for average reduction of the SBP: 1 h after administration, significantly different from control
# Experimental: In this recognized model of hypertension, male spontaneously hypertensive rats (315 to 376 g) with systolic blood pressures (SBP) >160 mm Hg were used. Systolic blood pressures were recorded on conscious animals by a tail cuff method (FS-40 blood pressure/pulse monitor). Prior to all measurements, the rats were placed in a restraining cylinder. […] The pressures were monitored again 1, 2, 3, 4 and 24 h after administration of the test compounds. A control group (n=18) was included for comparison purposes.
# [3] = oral 30 mg/kg, after 2, 3, 4 and 24 h, Duncan-Kramer test, p<0.05
SMILES,% Inhibition of Angiotensin I-induced contractions [1] [%],average reduction of the SBP ([2]; oral 30 mg/kg) [mm Hg],"antihypertensive effect ([2]; oral 30 mg/kg, overall)",further results
"C[C@H](NC(=O)c1ccc(=O)[nH]c1)C(=O)N1CCC[C@H]1C(=O)O [Compound No. 35, N-[(1,6-dihydro-6-oxo-3-pyridinyl)carbonyl]-L-alanyl-L-proline]",16.0,–,–,–
"C[C@H](NC(=O)c1ccc(=S)[nH]c1)C(=O)N1CCC[C@H]1C(=O)O [Compound No. 29, N-[(1,6-dihydro-6-thioxo-3-pyridinyl)carbonyl]-L-alanyl-L-proline]",16.2,–,–,–
"C[C@H](NC(=O)c1cc[nH]c(=S)c1)C(=O)N1CCC[C@H]1C(=O)O [Compound No. 27, N-[(1,2-dihydro-2-thioxo-4-pyridinyl)carbonyl]-L-alanyl-L-proline]",18.1,28.4±3.16,significant antihypertensive effect,"SBP reduction versus control [2, 3]: significantly different from the control; antihypertensive effect ([2]; oral doses of 7.5 and 15 mg/kg): Antihypertensive effects were also observed"
"CCOC(=O)c1cccc(C(=O)N[C@@H](C)C(=O)N2CCC[C@H]2C(=O)OCC)n1 [Compound No. 8, N-[(2-Ethoxycarbonyl-6-pyridinyl)carbonyl]-L-alanyl-L-proline ethyl ester]",–,32.6±7.49,significant antihypertensive effect,"SBP reduction versus control [2, 3]: significantly different from the control; antihypertensive effect ([2]; oral doses of 7.5 and 15 mg/kg): Antihypertensive effects were also observed"
"C[C@H](CS)C(=O)N1CCC[C@H]1C(=O)O [Captopril, D-3-mercapto-2-methylpropanoyl-L-proline, reference compound]",28.9,17.2±8.49,–,"SBP reduction versus control ([2]; oral 30 mg/kg, after 24 h): inactive"
"CCOC(=O)[C@@H]1CCCN1C(=O)[C@H](C)NC(=O)c1ccc[nH]c1=O [Compound No. 21, N-[(1,2-Dihydro-2-oxo-3-pyridinyl)carbonyl]-L-alanyl-L-prolineethyl ester]",30.7,–,significant antihypertensive effect,"SBP reduction, time course ([2]; oral 30 mg/kg, monitored 1, 2, 3, 4 and 24 h): significant reduction only after 2 h; SBP reduction ([2]; oral 45 mg/kg, after 2, 3, 4 and 24 h): significant"
"C[C@H](NC(=O)c1cccc(Cl)n1)C(=O)N1CCC[C@H]1C(=O)O [Compound No. 24, N-[(6-Chloro-2-pyridinyl)carbonyl]-L-atanyl-L-proline]",20.6,–,–,–
